Results on 21 compounds are retold here after PubChem BioAssay (NCI).

Common to all, as to assay: DTP human tumour cell line panel, 48 h
Assay [1] has as its system NCI-H23 lung.
Assay [2] deals with OVCAR-3 ovarian.
The subject of assay [3] is EKVX NSCLC.
The subject of assay [4] is MALME-3M melanoma.
Assay [5] concerns UACC-62 melanoma.
The test system of assay [6] is HCT-116 colon.
Assay [7] deals with SK-MEL-28 melanoma.
Assay [8] deals with KM12 colon.
The test system of assay [9] is HL-60(TB) leukemia.
The test system of assay [10] is A498 renal.

Molecules are shown by their SMILES.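 Cultured in 96-well plates, cells were exposed to test compound for 48 hours across five concentrations. The concentration for 50% growth inhibition is given as GI50. TGI: concentration producing complete growth inhibition.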

On to `COc1ccc(CNc2c3ccccc3nc3ccc(OC)cc23)cc1`, for which the GI50 (in general, the concentration at which growth is held to half of that of the control) in assay [1] is 1.78 µM; in assay [2] it was 2.61 µM; in assay [3] it was 3.15 µM; in [4], 1.89 µM; in assay [5], 1.79 µM; in assay [6], 2.55 µM. Also, the GI50 was 1.88 µM in [7], 3.3 µM in assay [8], 2.15 µM in assay [9] and 1.69 µM in [10]. The TGI (as a rule, the concentration giving total growth inhibition) came to 4.71 µM in [1]; 8.68 µM in [2]; 12.2 µM in assay [3]; 3.72 µM in assay [4]; 3.75 µM in assay [5]; 11.6 µM in [6]. Also, the TGI in assay [7] was found to be 3.68 µM; in [8], 12.4 µM; in assay [9], 4.73 µM; in [10], 3.33 µM.
Take `COc1cc2c(Oc3ccc4[nH]c(C)cc4c3F)ccnc2cc1OCC1(N)CC1`: the GI50 is 0.809 µM in [2]; 2.79 µM in assay [3]; 1.21 µM in [4]; 1.64 µM in assay [5]; 0.745 µM in assay [6]; 1.41 µM in assay [7]. The figures for the GI50 in assay [8], in assay [9] and in [10] were 1.24 µM, 0.382 µM and 2.2 µM, respectively. The TGI in [2] was 24.7 µM; in assay [3], more than 100 µM; in assay [4], 3.03 µM; in assay [5], 3.79 µM; in assay [6], 10.6 µM; in assay [7], 2.95 µM. Moreover, the TGI is 12.5 µM in assay [8], 1.95 µM in assay [9] and 19.7 µM in [10].
For the compound `O=C1NC2CCC(C2)C1c1ccccc1` (stereo not drawn), the TGI in assay [1], in [2], in assay [3], in [4], in assay [5] and in assay [7] was more than 100 µM in each case. Also, the TGI in assay [8], in [9] and in assay [10] was more than 100 µM in each case.
On to `COc1ccc(C(=O)OC2C=COC(C)C2OC(=O)c2ccc(OC)cc2)cc1` (stereo not drawn), for which the TGI in assay [1] was 36.1 µM; in [2], 32.3 µM; in assay [3] it was more than 100 µM; in assay [4] it was more than 47.1 µM; in [5], 37.7 µM; in assay [6] it was 21.8 µM. The concentration for total growth inhibition (TGI) was 33.2 µM in assay [7], 40.2 µM in [8], 38 µM in assay [9] and more than 100 µM in assay [10].
With `NC1CCCCC1N.O=S(=O)([O-])CCCN1CCOCC1.O=S(=O)([O-])CCCN1CCOCC1.[Pt+4]`, the GI50 in [1] was 18.2 µM; in assay [2], 19.3 µM; in [3], more than 100 µM; in assay [4], 5.23 µM; in assay [5] it was 11.8 µM; in assay [6], 4.2 µM. Besides, the GI50 in assay [7] was 5.32 µM; in assay [8], 35.1 µM; in assay [9], 4.81 µM; in assay [10], 49 µM. Moreover, the TGI in assay [1] is more than 92.2 µM; in [2], more than 100 µM; in assay [3], more than 100 µM; in assay [4], 22.5 µM; in [5], more than 83.1 µM; in [6] it was more than 100 µM. Also, the TGI in assay [7] is 48.3 µM; in [8] it was more than 100 µM; in assay [9] it was 19.7 µM; in assay [10], more than 100 µM.
For the compound `O=C(Nc1ccc(F)cc1)C(=O)C(C1OC(=O)c2ccccc21)[N+](=O)[O-]` (stereo not drawn), the TGI in assay [1], in [2], in [3], in assay [4], in assay [5] and in assay [6] was more than 100 µM each time. The TGI in [7], in [8], in assay [9] and in assay [10] was more than 100 µM in each case.
In the case of `CN1CCCCCC(=N\O)/C(=N/O)CCCCC1`, the TGI in assay [1], in [2], in [3], in [4], in assay [6] and in assay [7] was more than 100 µM each time. The TGI in assay [8], in assay [9] and in assay [10] was more than 100 µM each time.
`O=c1[nH]ccc2nc(N3CCC(O)CC3)nc(Nc3cccc(C(F)(F)F)c3)c12`: the GI50 was 3.24 µM in assay [1]; 1.34 µM in assay [2]; 2.85 µM in assay [3]; 2.61 µM in [4]; 1.84 µM in assay [5]; 0.88 µM in assay [6]. For the same compound, the GI50 in [7] is 4.63 µM; in assay [8], 1.44 µM; in assay [9], 0.863 µM; in assay [10] it was 2.5 µM. Further, the TGI in assay [1] stood at 13.9 µM; in [2], 3.98 µM; in assay [3] it was 12.1 µM; in assay [4] it was 7.87 µM; in assay [5], 6.95 µM; in assay [6], 12.3 µM. Moreover, the TGI in assay [7] is 17.4 µM; in [8], 5.42 µM; in [9], 5.06 µM; in assay [10] it was more than 100 µM.
As to `CCCCc1ccc(-n2c3nc(=O)n(C)c(=O)c-3nc3ccccc32)cc1`, the TGI is 8.19 µM in assay [1]; 10.1 µM in [2]; 15.5 µM in [3]; 19.7 µM in [4]; 4 µM in assay [5]; 25.6 µM in assay [6]. The TGI in assay [8] came to 26.6 µM; in [9] it was 32.5 µM; in assay [10], 32.7 µM.
In the case of `COc1ccc2c(CN3CCC[C@H]3C(=O)O)cc3cc4c(cc3c2c1)OCO4`, the GI50 is 12 µM in [2]; 20.2 µM in [3]; 2.59 µM in assay [4]; 10.9 µM in assay [5]; 4.8 µM in [6]; 15.5 µM in assay [7]. Further, the results for the GI50 in [8], in assay [9] and in assay [10] were 12 µM, 22.9 µM and 11.1 µM, respectively. Further, the TGI is 63 µM in assay [2]; 65.7 µM in assay [3]; 17.7 µM in assay [4]; 23.7 µM in assay [5]; more than 100 µM in [6]; 36.8 µM in assay [7]. Further, the TGI stood at 41.8 µM in [8], 67.8 µM in assay [9] and 26.4 µM in assay [10].
As for `Cc1cc(-c2nnc(N)nc2-c2ccc(F)cc2)cc(Cl)n1`, the GI50 in [1] was 54.3 µM; in assay [2], more than 100 µM; in assay [3], 59.9 µM; in assay [4] it was more than 100 µM; in assay [6], 75.4 µM; in assay [7], more than 100 µM. Further, the GI50 was more than 100 µM in [8], 33.6 µM in assay [9] and 49 µM in [10]. Moreover, the TGI in [1], in assay [2], in assay [3], in assay [4], in assay [6] and in assay [7] was more than 100 µM in each case. For the same compound, the TGI in [8], in [9] and in assay [10] was more than 100 µM in each case.
On to `O=C([O][Hg][CH2]C1COCC([CH2][Hg][O]C(=O)c2ccccc2)O1)c1ccccc1` (stereo not drawn), for which the GI50 in assay [1] was 16.1 µM; in assay [2], 1.58 µM; in assay [3] it was 19.6 µM; in assay [5], 16.4 µM; in [6] it was 1.56 µM; in [7] it was 6.86 µM. In addition, the GI50 in assay [8] is 16.6 µM; in assay [9], 3.84 µM; in [10] it was 17.1 µM. For the same compound, the TGI worked out at 36.8 µM in assay [1]; 2.93 µM in assay [2]; 37.4 µM in assay [3]; 32.4 µM in assay [5]; 2.93 µM in [6]; 19.6 µM in assay [7]. The TGI in assay [8] turned out to be 31.5 µM; in assay [9], 13.9 µM; in assay [10], 31.2 µM.
In the case of `CC(=O)Nc1c(C)ccc2c1C(=O)c1ccccc1C2=O`, the TGI in assay [4], in assay [5], in [6], in assay [8], in [9] and in assay [10] was more than 100 µM throughout.
Take `COC(=O)C12CC3CC(C1)CC(C(=O)OC)(C3)C2`: the TGI in assay [1], in assay [2], in assay [3], in assay [5], in assay [6] and in [7] was more than 100 µM in each case. Moreover, the concentration for total growth inhibition (TGI) in assay [8], in assay [9] and in [10] was more than 100 µM each time.
As for `Cc1nc2cc(N)c(F)cc2[nH]1`, the TGI in assay [1], in [3], in assay [4], in assay [5], in assay [7] and in assay [8] was more than 100 µM throughout. The TGI in [9] and in [10] was more than 100 µM throughout.
Regarding `C[C@@H]1N=C(c2ccc(Br)cc2)Nc2nc3ccccn3c2C1=O`, the GI50 in assay [1] is 25.4 µM; in [2] it was 3.34 µM; in [4], 15.2 µM; in assay [5] it was 4.35 µM; in assay [6], 4.04 µM; in [7] it was 9.51 µM. The GI50 in assay [8] was 3.39 µM; in [9], 6.49 µM; in assay [10], 3.26 µM. In addition, the TGI in assay [1] was more than 100 µM; in assay [2], 17.8 µM; in assay [4], more than 100 µM; in assay [5], more than 100 µM; in assay [6] it was more than 100 µM; in [7], more than 100 µM. Moreover, the TGI in assay [8] was more than 100 µM; in assay [9] it was more than 100 µM; in assay [10], 38.2 µM.
Consider `CSc1nc(NC(=O)O)c(N(C(C)=O)C(=O)O)c(=O)n1C`, for which the TGI in assay [2], in [3], in assay [4], in assay [5], in assay [6] and in assay [7] was more than 100 µM in each case. Further, the concentration for total growth inhibition (TGI) in assay [8], in [9] and in [10] was more than 100 µM in each case.
On to `NC(=S)N/N=C(\C(=O)Nc1cccc([N+](=O)[O-])c1)c1nc2ccc([N+](=O)[O-])cc2[nH]c1=O`, for which the TGI in assay [1], in assay [3], in assay [4], in assay [5], in assay [6] and in [7] was more than 100 µM in each case. The total growth inhibition concentration (TGI) in [8], in [9] and in [10] was more than 100 µM in each case.
As for `Cc1ccc(/C=C/C(=O)c2sc(-c3cccnc3)nc2C)cc1`, the TGI in assay [1], in assay [2], in assay [3], in assay [4], in [5] and in assay [8] was more than 100 µM throughout. In addition, the TGI in assay [9] and in [10] was more than 100 µM in each case.
For `COc1ccc2cc3[n+](cc2c1OC)CCc1cc(O)c(O)cc1-3`, the total growth inhibition concentration (TGI) in assay [1], in assay [2], in assay [3], in assay [4], in [5] and in assay [6] was more than 100 µM throughout. Further, the TGI in assay [8], in assay [9] and in assay [10] was more than 100 µM in each case.
In the case of `c1cc(OCCN2CCCCC2)ccc1CNc1ccc2nc(CCC3CCCCC3)[nH]c2c1`, the GI50 in [1] is 2.03 µM; in assay [2], 1.73 µM; in assay [3] it was 1.99 µM; in [4], 1.62 µM; in [5], 1.95 µM; in assay [6], 1.64 µM. For the same compound, the values for the GI50 in [8], in assay [9] and in assay [10] were 2.42 µM, 1.79 µM and 1.67 µM, respectively. Besides, the TGI was found to be 4.91 µM in [1]; 3.5 µM in assay [2]; 6.19 µM in assay [3]; 3.14 µM in [4]; 3.47 µM in assay [5]; 3.57 µM in assay [6]. For the same compound, the TGI is 6.17 µM in assay [8], 3.78 µM in assay [9] and 4.08 µM in assay [10].
